Reference: patent US20240262793A1, “QUINAZOLINE COMPOUND, AND PREPARATION METHOD THEREFOR AND APPLICATION THEREOF” (SHANGHAI PHARMACEUTICALS HOLDING CO., LTD., priority 2021, published 2024)

What was measured:
Format in all cases: cell-based
Settings in all cases: Homo sapiens, LPS 100 ng/mL
IL-6 = experiment: Inhibition of IL-6 in PMA-differentiated, LPS-stimulated THP-1 cells (ELISA of cell supernatant)
Description: (§1) (1) Cell culture and inoculation: A stock solution of PMA at 1 mg/mL was diluted with serum-free RP1640 medium to prepare a 100 ng/mL PMA solution. Normal cultured THP-1 cells were centrifuged, resuspended in a complete medium (RP1640 medium containing 10% FBS), and counted. The cell density was adjusted to 2×10^6 cells/mL. An equal volume of 100 ng/mL PMA solution was then added, resulting in a cell density of 1×10^6 cells/mL and a final PMA concentration of 50 ng/mL. 100 μL of the cell suspension was seeded into each well of a 96-well cell culture plate with 1×10^5 cells per well. The 96-well cell culture plate was then incubated at 37° C. in a 5% CO2 atmosphere for 24 hours.
(§2) (2) Drug treatment of cells: On the second day, LPS was added to the complete medium to adjust the final concentration to 100 ng/mL, and the compound was prepared using this LPS-containing medium. The compound was added to the appropriate cell wells according to the prepared concentration gradient. The positive control group (LPS+) was a culture medium solution containing a final concentration of 100 ng/mL LPS and 0.1% DMSO without drugs, while the negative control group (LPS-) was a culture medium solution containing 0.1% DMSO without LPS. The volume in each well was 100 μL.
(§3) (3) Test sample collection: The mixture was centrifuged at 1000 rpm for 5 minutes and the cell supernatant and cell precipitate were collected separately. The cell supernatant was used to detect TNF-α and IL-6, and the cell precipitate was collected for IL-1β detection. After collecting the cell supernatant, the remaining liquid in the wells was discarded and 100 μL of cell lysis solution (20 mM Tris 8.0; 2 mM EDTA; 0.5% Triton X-100) was added to each well for complete lysis.
(§4) (4) Sample detection: The enzyme-linked immunosorbent assay (ELISA) was used to detect the content of each cytokine. The specific steps were performed according to the instructions provided in the corresponding kit manuals. The catalog numbers of kits are as follows: • Human TNF-alpha Quantikine ELISA Kit, Catalog # STA00D • Human IL-1 beta/IL-1F2 Quantikine ELISA Kit, Catalog # SLB50 • Human IL-6 Quantikine ELISA Kit, Catalog # S6050.
(§5) (5) Data analysis: The in vitro inhibitory activity of the compounds was calculated using the following formula: […]

TNF-α = experiment: Inhibition of TNF-α in PMA-differentiated, LPS-stimulated THP-1 cells (ELISA of cell supernatant)
Description: as §1, §2, §3, §4, §5

IL-1β = experiment: Inhibition of IL-1β in PMA-differentiated, LPS-stimulated THP-1 cells (ELISA of cell lysate)
Description: as §1, §2, §3, §4, §5

| SMILES | IC50 (IL-6; THP-1, Table 7, PMA 50 ng/mL) [µM] | IC50 (TNF-α; THP-1, Table 7, PMA 50 ng/mL) [µM] | IC50 (IL-1β; THP-1, Table 7, PMA 50 ng/mL) [µM] | IC50 (TNF-α; THP-1, Table 8, PMA 50 ng/mL) [µM] | IC50 (IL-6; THP-1, Table 8, PMA 50 ng/mL) [µM] | IC50 (IL-1β; THP-1, Table 8, PMA 50 ng/mL) [µM] |
| --- | --- | --- | --- | --- | --- | --- |
| CC(CCCN(CCO)Cc1cnccn1)Nc1ccnc2cc(Cl)ccc12 (centres unmarked) [Example 32, 2-((4-((7-Chloroquinolin-4-yl)amino)pentyl)(pyrazin-2-ylmethyl)amino)ethan-1-ol] | 0.63 | – | – | – | – | – |
| CC(CCCN(CCO)Cc1ccc(C#N)cc1F)Nc1ccnc2cc(Cl)ccc12 (centres unmarked) [Example 30, 4-(((4-((7-Chloroquinolin-4-yl)amino)pentyl)(2-hydroxyethyl)amino)methyl)-3-fluorobenzonitrile] | 0.12 | 0.97 | 1.34 | – | – | – |
| O=C1NC2(CCC2)C(=O)N1CCCCNc1ncnc2cc(Cl)ccc12 [Example 64, 7-(4-((7-Chloroquinazolin-4-yl)amino)butyl)-5,7-diazaspiro[3.4]octane-6,8-dione] | – | – | – | 34.9 | 0.34 | 63.8 |
| CS(=O)(=O)c1ccc(CN(CCO)CCCCCNc2ncnc3cc(F)ccc23)cc1 [Example 49] | 1.15 | 18.5 | 48.2 | – | – | – |
| O=C1CNC(=O)N1CCCCNc1ncnc2cc(F)ccc12 [Example 56, 3-(4-((7-Fluoroquinazolin-4-yl)amino)butyl)imidazoline-2,4-dione] | – | – | – | 159 | 18.8 | 16.3 |
| CC(CCCN(CCO)Cc1ccc(-n2cccn2)cc1)Nc1ccnc2cc(Cl)ccc12 (centres unmarked) [Example 28, 2-((4-(1H-Pyrazol-1-yl)benzyl)(4-((7-chloroquinolin-4-yl)amino)pentyl)amino)ethan-1-ol] | 0.68 | 11.2 | 10.9 | – | – | – |
| COC(=O)c1ccc(CN(CCO)CCCC(C)Nc2ccnc3cc(Cl)ccc23)c(OC)c1 (centres unmarked) [Example 22, Methyl 4-(((4-((7-chloroquinolin-4-yl)amino)pentyl)(2-hydroxyethyl)amino)methyl)-3-methoxybenzoate] | 2.06 | 6.91 | 9.79 | – | – | – |
| CC(CCCN(CCO)Cc1ccc(C#N)cc1)Nc1ccnc2cc(Cl)ccc12 (centres unmarked) [Example 23, 4-(((4-((7-Chloroquinolin-4-yl)amino)pentyl)(2-hydroxyethyl)amino)methyl)benzonitrile] | 0.38 | 2.79 | 1.36 | – | – | – |
| CC(CCCN(CCO)Cc1ccc(S(C)(=O)=O)cc1)Nc1ccnc2cc(Cl)ccc12 (centres unmarked) [Example 26, 2-((4-((7-Chloroquinolin-4-yl)amino)pentyl)(4-(methylsulfonyl)benzyl)amino)ethan-1-ol] | 0.33 | 3.82 | 14 | – | – | – |
| C[C@H](CCCN1C(=O)NC2(CC2)C1=O)Nc1ncnc2cc(Cl)ccc12 [Example 76, (R)-6-(4-((7-Chloroquinazolin-4-yl)amino)pentyl)-4,6-diazaspiro[2.4]heptane-5,7-dione] | – | – | – | 96.1 | 19.9 | 110 |
| O=C1NC2(CCNCC2)C(=O)N1CCCCNc1ncnc2cc(F)ccc12 [Example 60, 3-(4-((7-Fluoroquinazolin-4-yl)amino)butyl)-1,3,8-triazaspiro[4.5]decane-2,4-dione] | – | – | – | – | 34 | – |
| CC(CCCN1C(=O)NC2(CC2)C1=O)Nc1ncnc2cc(Cl)ccc12 (centres unmarked) [Example 73, 6-(4-((7-Chloroquinazolin-4-yl)amino)pentyl)-4,6-diazaspiro[2.4]heptane-5,7-dione] | – | – | – | 33.5 | 1.5 | 38.1 |
| CC(CCCN(CCO)Cc1ccccc1)Nc1ncnc2cc(F)ccc12 (centres unmarked) [Example 35, 2-(Benzyl(4-((7-fluoroquinazolin-4-yl)amino)pentyl)amino)ethan-1-ol] | 0.82 | 20.1 | 5.66 | – | – | – |
| CC(CCCN1CC2CCCC2C1)Nc1ccnc2cc(Cl)ccc12 (centres unmarked) [Example 8, 7-Chloro-N-(5-(hexahydrocyclopenta[c]pyrrol-2 (1H)-yl)pentan-2-yl)quinolin-4-amine] | 3.29 | 18.4 | 34.1 | – | – | – |
| CC1(C)NC(=O)N(CCCCNc2ncnc3cc(F)ccc23)C1=O [Example 57, 3-(4-((7-Fluoroquinazolin-4-yl)amino)butyl)-5,5-dimethylimidazoline-2,4-dione] | – | – | – | 29.4 | 3.22 | 53.9 |
| O=C1NC2(CCCC2)C(=O)N1CCCCNc1ncnc2cc(F)ccc12 [Example 59, 3-(4-((7-Fluoroquinazolin-4-yl)amino)butyl)-1,3-diazaspiro[4.4]nonane-2,4-dione] | – | – | – | 12.1 | 0.37 | 80.5 |
| COC(=O)c1ccc(CN(CCO)CCCC(C)Nc2ncnc3cc(Cl)ccc23)cc1 (centres unmarked) [Example 36, Methyl 4-(((4-((7-chloroquinazolin-4-yl)amino)pentyl)(2-hydroxyethyl)amino)methyl)benzoate] | 1.05 | 6.86 | 17.2 | – | – | – |

| SMILES | IC50 (IL-6; THP-1, Table 7, PMA 50 ng/mL) [µM] | IC50 (TNF-α; THP-1, Table 7, PMA 50 ng/mL) [µM] | IC50 (IL-1β; THP-1, Table 7, PMA 50 ng/mL) [µM] | IC50 (TNF-α; THP-1, Table 8, PMA 50 ng/mL) [µM] | IC50 (IL-6; THP-1, Table 8, PMA 50 ng/mL) [µM] | IC50 (IL-1β; THP-1, Table 8, PMA 50 ng/mL) [µM] |
| --- | --- | --- | --- | --- | --- | --- |
| CC(CCCNCC1(C)COC1)Nc1ccnc2cc(Cl)ccc12 (centres unmarked) [Example 4, N^4-(7-Chloroquinolin-4-yl)-N^1-((3-methyloxetan-3-yl)methyl)pentane-1,4-diamine] | 1.28 | 5.54 | 14.4 | – | – | – |
| CC(CCCN1CC2(COC2)C1)Nc1ccnc2cc(Cl)ccc12 (centres unmarked) [Example 6, N-(5-(2-Oxa-6-azaspiro[3.3]heptan-6-yl)pentan-2-yl)-7-chloroquinolin-4-amine] | 23.9 | 32.7 | – | – | – | – |
| CC(CCCN1C(=O)CNC1=O)Nc1ccnc2cc(F)ccc12 (centres unmarked) [Example 12, 3-(4-((7-Fluoroquinolin-4-yl)amino)pentyl)imidazolidine-2,4-dione] | 20.5 | – | – | – | – | – |
| CC1(C)NC(=O)N(CCCCCNc2ncnc3cc(F)ccc23)C1=O [Example 53, 3-(5-((7-Fluoroquinazolin-4-yl)amino)pentyl)-5,5-dimethylimidazoline-2,4-dione] | – | – | – | – | 0.52 | 118 |
| O=C1CNC(=O)N1CCCCCNc1ncnc2cc(F)ccc12 [Example 50, 3-(5-((7-Fluoroquinazolin-4-yl)amino)pentyl)imidazolidine-2,4-dione] | – | – | – | – | 3.99 | 122 |
| C[C@H](CCCN1C(=O)CNC1=O)Nc1ncnc2cc(Cl)ccc12 [Example 74, (R)-3-(4-((7-Chloroquinazolin-4-yl)amino)pentyl)imidazolidine-2,4-dione] | – | – | – | – | 12.4 | – |
| CC(CCCNCCN1CCCC1)Nc1ccnc2cc(Cl)ccc12 (centres unmarked) [Example 3, N^4-(7-Chloroquinolin-4-yl)-N^1-(2-(pyrrolidin-1-yl)ethyl)pentane-1,4-diamine] | 5.53 | 56.5 | – | – | – | – |
| O=C1NC2(CC2)C(=O)N1CCCCNc1ncnc2cc(F)ccc12 [Example 61, 6-(4-((7-Fluoroquinazolin-4-yl)amino)butyl)-4,6-diazaspiro[2.4]heptane-5,7-dione] | – | – | – | – | 5.84 | 134 |
| CC(CCCN1C(=O)CCC1=O)Nc1ncnc2cc(Cl)ccc12 (centres unmarked) [Example 15, 1-(4-((7-Chloroquinazolin-4-yl)amino)pentyl)pyrrolidine-2,5-dione] | 1.24 | 17.4 | – | – | – | – |
| CC(CCCN(CCO)Cc1ncn(C)n1)Nc1ccnc2cc(Cl)ccc12 (centres unmarked) [Example 33, 2-((4-((7-Chloroquinolin-4-yl)amino)pentyl)((1-methyl-1H-1,2,4-triazol-3-yl)methyl)amino)ethan-1-ol] | 3.85 | – | – | – | – | – |
| O=C1NC2(CC2)C(=O)N1CCCCNc1ncnc2cc(Cl)ccc12 [Example 65, 6-(4-((7-Chloroquinazolin-4-yl)amino)butyl)-4,6-diazaspiro[2.4]heptane-5,7-dione] | – | – | – | – | 2.02 | – |
| CC(CCCN(CCO)Cc1c(F)cccc1Cl)Nc1ncnc2cc(Cl)ccc12 (centres unmarked) [Example 38] | 0.12 | 7.28 | – | – | – | – |
| O=C1NC2(CC2)C(=O)N1CCCCCNc1ncnc2cc(Cl)ccc12 [Example 68, 6-(5-((7-Chloroquinazolin-4-yl)amino)pentyl)-4,6-diazaspiro[2.4]heptane-5,7-dione] | – | – | – | – | 0.42 | – |
| CC(CCCN(CCO)Cc1ncco1)Nc1ccnc2cc(F)ccc12 (centres unmarked) [Example 41] | 30.4 | – | – | – | – | – |
| O=C1NC2(CCC2)C(=O)N1CCCCCNc1ncnc2cc(Cl)ccc12 [Example 70, 7-(5-((7-Chloroquinazolin-4-yl)amino)pentyl)-5,7-diazaspiro[3.4]octane-6,8-dione] | – | – | – | – | 0.46 | – |
| OCCN(CCCCCNc1ncnc2cc(Cl)ccc12)Cc1ncco1 [Example 46, 2-((5-((7-Chloroquinazolin-4-yl)amino)pentyl)(oxazol-2-ylmethyl)amino)ethan-1-ol] | 0.27 | 56.7 | – | – | – | – |
| CC(CCCN1CC2(CCOCC2)C1)Nc1ncnc2cc(F)ccc12 (centres unmarked) [Example 14, N-(5-(7-Oxa-2-azaspiro[3.5]nonan-2-yl)pentan-2-yl)-7-fluoroquinazolin-4-amine] | 2.98 | – | – | – | – | – |
